Experimental findings from US10202427B2, “Esculentin-2CHa peptide and analogues thereof” (UNIVERSITY OF ULSTER, priority 2014, dated 2019) are described below.

In test [1] the test system is BRIN-BD11 cells. Description: Intracellular calcium in BRIN-BD11 cells (fluorimetric). Format: cell-based. As to conditions: peptide 1 μM, 10 min, vs 5.6 mM glucose alone. How it is done: (§1) Changes in membrane potential and [Ca^2+]i were determined fluorimetrically using monolayers of BRIN-BD11 cells as previously described by Miguel et al (2004) and Abdel-Wahab et al (2007) using a membrane potential assay kit or a Ca^2+ assay kit (Molecular Devices, Sunnyvale, Calif., USA) according to the manufacturer's recommended protocols. Data were acquired using a FlexStation scanning fluorimeter with integrated fluid transfer workstation (Molecular Devices). The cells were incubated at 37° C. for 10 min with synthetic peptides at a concentration of 1 μM. Control incubations in the presence of 5.6 mM glucose only, 30 mM KCl, and 10 mM alanine were also carried out.

For test [2], the system named is BRIN-BD11 cells. The experiment in a line: Insulin release from BRIN-BD11 cells with known modulators of insulin secretion / extracellular calcium. Format: cell-based. Conditions: 16.7 mM glucose; peptide 10^-6 M. How it is done:
Cellular mechanism of actions of synthetic peptides was investigated by measuring insulin-release from BRIN-DB11 cells in the presence or absence of synthetic peptides (10^−6M) and known modulators of insulin-release. These additional incubations were carried in (a) medium supplemented with 16.7 mM glucose, (b) calcium-free medium supplemented with 5.6 mM glucose, (c) medium containing 5.6 mM glucose and diazoxide ([…]), (d) medium containing 5.6 mM glucose and verapamil ([…]), and (e) medium supplemented with 16.7 mM glucose and 30 mM KCl. Cells were incubated for 20 min at 37° C. and insulin concentrations in cell supernatants were measured by radioimmunoassay (Flatt and Bailey (1981)).
Without being bound by theory, by incubating BRIN-BD11 cells with the known modulators of insulin release in the absence or presence of the peptides and peptide analogues of the present invention (10^-6M), it was shown that the stimulatory effect of the peptides was inhibited in the presence of verapamil (50 μM) and chelation of extracellular calcium but completely abolished in the presence of diazoxide (200 μM). Moreover, insulin secretion increased with the co-incubation of the peptide with IBMX (200 μM), and tolbutamide (200 μM).

For test [3], the system named is BRIN-BD11 cells. The experiment in a line: Insulin release from BRIN-BD11 cells (radioimmunoassay). Format: cell-based. As for the experimental part:
BRIN-BD11 cells (Public Health England; Cat. No: 10033003) were grown at 37° C. in an atmosphere of 5% CO2 and 95% air in RPMI-1640 tissue culture medium containing 10% (v/v) fetal calf serum, antibiotics (100 U/ml penicillin, 0.1 mg/ml streptomycin) and 11.1 mM glucose as previously described (Marenah et al, 2004; Conlon et al, 2008; and Mechkarska et al, 2011). The cells were pre-incubated for 40 min at 37° C. in 1.0 ml Krebs Ringer bicarbonate (KRB) buffer, pH 7.4 supplemented with either 5.6 mM or 16.7 mM glucose and 0.1% (w/v) bovine serum albumin (Conlon et al, 2008). Incubations with synthetic peptides (10^−12-3×10^−6 M; n =8) were performed for 20 min at 37° C. using the same buffer. After incubation, aliquots of cell supernatant were removed for insulin radioimmunoassay as described by Flatt and Bailey (1981).

Test [4] deals with BRIN-BD11 cells. The experiment in a line: Membrane potential in BRIN-BD11 cells (fluorimetric). Format: cell-based. Conditions: peptide 1 μM, 10 min, vs 5.6 mM glucose alone. As for the experimental part:
as §1

Another test has as its system NIH Swiss TO mice. Description: Acute in vivo glucose tolerance study, i.p. glucose with peptide. Conditions: peptide 75 nmol/kg bw i.p. with glucose; for plasma insulin concentration after intraperitoneal glucose load: mice. How it is done: (§2) All animal experiments were carried out in accordance with the UK Animals (Scientific Procedures) Act 1986 and EC Directive 86/609/EEC for animal experiments. For acute in vivo glucose tolerance studies, age-matched groups (n =6) of overnight fasted male NIH Swiss TO mice received an intraperitoneal injection of either glucose alone (32% w/v) or in combination with synthetic peptides (75 nmol/kg body weight). All solutions were administered in 0.9% NaCl (5 ml/kg body weight). Blood glucose concentrations were measured by Bayer Ascencia Blood glucose meter and plasma insulin concentrations were measured by radioimmunoassay as described by Flatt and Bailey (1981). For chronic in vivo studies, male NIH Swiss TO mice were fed high fat diet or standard diet from 8 weeks of age to 27 weeks of age. Peptides were administered twice daily for 28 days. No adverse effects were observed following administration of the peptide. Parameters including body weight, energy intake, blood glucose and plasma insulin levels were monitored once in three days for 28 days. Body weight and energy intake were measured by weighing mice and food weights respectively. At the end of the study, to determine glucose tolerance, glucose (18 mmol/kg bw) was injected (i.p) to overnight fasted mice and blood glucose levels were monitored at 0, 15, 30, 60 and 90 minutes. To determine insulin sensitivity, insulin (25 U/kg bw) was injected and blood glucose levels were monitored at 0, 15, 30 and 60 minutes. To determine blood glucose profile over a period of 24 h, blood glucose levels were monitored at 0 (before peptide administration), 2, 4, 8 (before peptide administration) and 24 h (before peptide administration). Lean and fat mass were determined by DXA scanning and terminal blood and tissues were collected for ex vivo studies including pancreatic islet morphology, hormone content, lipid profile and islet function.

Test [5] deals with Swiss TO mice on high fat diet. Description: Chronic in vivo study, twice-daily peptide for 28 days in high fat fed mice. As to conditions: for glucose tolerance: end of 28 day study, glucose 18 mmol/kg bw i.p., overnight fasted; for effect on body weight change relative to Exendin-4 / body weight change (Day 0-Day 28): twice daily; for effect on body weight change relative to Exendin-4 / body weight change (Day 0-Day 28) / plasma insulin levels during treatment: 28 days; for body weight change (Day 0-Day 28): vs lean and high fat diet saline control; for blood glucose levels during treatment: monitored once in three days for 28 days. As for the experimental part:
as §2, with “No adverse effects were observed following administration of the peptide.” left out
In vivo anti-diabetic effects of Exendin-4, Esculentin-2CHa-(GA30), [D-Arg7, D-Lys15,D-Lys23]-esculentin-2CHa-(GA30), and Lys15-octanoate-Esculentin-2CHa-(GA30) were assessed using Swiss TO mice fed high fat diet, with appropriate controls (saline treated mice on standard diet or high fat diet).

[6] abbreviates: vs high fat diet saline control.

Esculentin-2CHa: the intracellular calcium result with BRIN-BD11 cells [1] was “caused an increase in intracellular calcium”. Moreover, the “insulin-release stimulatory effects in the presence of high glucose” value in the test with BRIN-BD11 cells [2] is reported as “retained”. Further, the “insulin release from BRIN-BD11 cells” value in the test with BRIN-BD11 cells [3] (5.6 mM glucose, peptides 10^-12-3x10^-6 M, 20 min) is “dose-dependent stimulatory effects”. The membrane depolarization result in the test on BRIN-BD11 cells [4] is reported as “significantly enhanced membrane depolarization”. Moreover, the “plasma glucose after intraperitoneal glucose load” value in the test with NIH Swiss TO mice (mice with diet-induced obesity diabetes (so in the source)) is reported as “significantly reduced plasma glucose concentration”. Further, the results for the “plasma insulin concentration after intraperitoneal glucose load” value (shortened to “plasma insulin concentration”) in the test on NIH Swiss TO mice and with NIH Swiss TO mice (listed as esculentin-2CHa) were “increase plasma insulin concentrations” and “significantly increased”, respectively.

On to Esculentin-2CHa-(GA30), for which, in test [5], the glucose tolerance entry was “improved glucose tolerance, with lowered plasma glucose and insulin levels”; the “effect on body weight change relative to Exendin-4” value is on record as “comparable to Exendin-4”; the “body weight change (Day 0-Day 28)” value is on record as “significant reduction in body weight”. Further, in test [5] (setting [6]), the “islet area, beta and alpha cell area” value was “significantly reduced islet area, beta and alpha cell area”; the “plasma insulin area under curve” value is given as “markedly lower than high fat diet saline control”; the “plasma insulin levels during treatment” value is “reduced plasma insulin levels significantly from day 12”. Besides, in the test with BRIN-BD11 cells [3] (at lower concentrations), the “insulin-releasing potency compared to native peptide” value is reported as “more potent than the native peptide at lower concentrations”. In addition, in the test with NIH Swiss TO mice, the “plasma insulin concentration” value was “significantly increased” and the “acute in vivo effects compared to native peptide” value is reported as “comparable to the effects of native esculentin-CHa”.

With Exendin-4 [reference compound], in test [5], the glucose tolerance entry was “improved glucose tolerance, with lowered plasma glucose and insulin levels”; the “body weight change (Day 0-Day 28)” value was “significant reduction in body weight”. Besides, the “islet area, beta and alpha cell area” value in test [5] (setting [6]) was “significantly reduced islet area, beta and alpha cell area”.

Lys15-octanoate-Esculentin-2CHa-(GA30): in test [5], the glucose tolerance entry is “improved glucose tolerance, with lowered plasma glucose and insulin levels”; the “blood glucose levels during treatment” value is “reduced blood glucose levels markedly from day 6”; the “effect on body weight change relative to Exendin-4” value is recorded as “comparable to Exendin-4”; the “body weight change (Day 0-Day 28)” value is reported as “significant reduction in body weight”. In test [5] (setting [6]), the LDL levels result was “reduced LDL levels”; the “islet area, beta and alpha cell area” value is “significantly reduced islet area, beta and alpha cell area”; the “plasma insulin area under curve” value was “markedly lower than high fat diet saline control”; the “plasma insulin levels during treatment” value is reported as “reduced plasma insulin levels significantly from day 12”.

“[D-Arg7, D-Lys15,D-Lys23]-esculentin-2CHa-(GA30)”: in test [5], the glucose tolerance result was “improved glucose tolerance, with lowered plasma glucose and insulin levels”; the “blood glucose levels during treatment” value is given as “reduced blood glucose levels from day 21”; the “effect on body weight change relative to Exendin-4” value was “comparable to Exendin-4”; the “body weight change (Day 0-Day 28)” value is “significant reduction in body weight”. Also, in test [5] (setting [6]), the “islet area, beta and alpha cell area” value is “significantly reduced islet area, beta and alpha cell area”; the “plasma insulin area under curve” value was “markedly lower than high fat diet saline control”.

For “[Lys20, Lys27, Ser31, Ser37]-Esculentin-2CHa”, in the test with NIH Swiss TO mice, the “plasma insulin concentration” value is on record as “significantly increased” and the “acute in vivo effects compared to native peptide” value is “comparable to the effects of native esculentin-CHa”.

[Lys20, Lys27]-Esculentin-2CHa-(GA30): the “plasma insulin concentration” value in the test on NIH Swiss TO mice is listed as “significantly increased”.
